Reference: PMC10987348, “Ammonium nanochelators in conjunction with arginine-specific enzymes in amperometric biosensors for arginine assay” (Mikrochimica Acta, 2023)

Target: T1, ADI (Metamycoplasma hominis, UniProt P41141)
T1 construct: gene arcA
Test: amperometric detection of released ammonium (ADI/nCdCu/GCE electrode)
Assay type: biochemical
Conditions: immobilised enzyme on nCdCu-modified glassy carbon; pH 7.5; -200 mV vs Ag/AgCl

T1 sequence (P41141 2-409): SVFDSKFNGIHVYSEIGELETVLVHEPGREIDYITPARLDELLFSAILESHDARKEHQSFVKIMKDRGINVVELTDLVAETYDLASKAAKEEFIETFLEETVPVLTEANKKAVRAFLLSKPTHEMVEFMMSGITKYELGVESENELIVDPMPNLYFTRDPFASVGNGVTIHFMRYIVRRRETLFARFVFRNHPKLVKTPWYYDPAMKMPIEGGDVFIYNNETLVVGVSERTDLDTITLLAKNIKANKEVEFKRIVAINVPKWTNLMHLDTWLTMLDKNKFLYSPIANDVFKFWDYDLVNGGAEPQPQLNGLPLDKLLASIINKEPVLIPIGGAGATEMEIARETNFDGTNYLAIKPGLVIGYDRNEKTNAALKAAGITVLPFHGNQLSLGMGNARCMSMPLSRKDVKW

## N=C(N)NCCC[C@H](N)C(=O)O [L-arginine]
  amperometric detection of released ammonium (ADI/nCdCu/GCE electrode): electrocatalytic activity of three bioelectrodes was evaluated by using CV under the addition of Arg
